Experimental findings from patent US11517598B2 (priority 2016, dated 2022) are described below.

In test [1] the test system is VSVΔ51 in various human and mouse cancer cell lines resistant to VSVΔ51 infection. The class given is cell-based.
Test [2] deals with VSVΔ51 in various human and mouse cancer cell lines. It is filed as cell-based.

In the case of Sodium orthovanadate, the “VSVΔ51 infection and viral titer” value in test [1] is given as “Comparable results”. Moreover, the plaque size entry in test [2] is “substantially increased plaque size”.
